Results taken from patent publication US6180640A, “Di- and tetra-hydroquinoline-indole antimicrobial agents, uses and compositions related thereto” (Sepracor, Inc., priority 1999, dated 2001).
Where two headings read alike, the source gives them in different places.

How the values were obtained:
[1] = in vivo; design: species or system mice; conditions: mouse, ip
Description: Solutions of compounds in 10% w/v hydroxypropyl-β-cyclodextrin in 0.9% w/v saline were prepared. A dose of 40 mg/kg or 120 mg/kg of each compound was administered to mice (5 mice/compound/dose) via intraperitoneal injections.

[2] = Pharmacokinetics in rats after i.v. dosing: plasma and tissue content; assay type: in vivo; conditions: 3.6 mg/kg i.v.; for concentration at 4 h: 3.6 mg/kg, liposomal
Description: The pharmacokinetics of the compound were evaluated in two rats after dosing at 3.6 mg/kg i.v using a liposomal formulation (1.8 mg/mL). […] Maximum concentrations of approximately 450 ng/ml were attained in plasma. […] Data on the accumulation of the compound in various tissues of the rats is contained in the table below.

[3] = system: methicillin-resistant Staphylococcus aureus; assay: Topical treatment of infected partial thickness wounds in pigs; assay type: in vivo, methicillin-resistant Staphylococcus aureus; pigs; conditions: pig wounds, 200 mg of 2% w/w in PEG
Description: This Example establishes the efficacy of an antibacterial compound of the present invention in the topical treatment of methicillin-resistant Staphylococcus aureus infections. Partial thickness wounds were made on properly anesthetized young, specific pathogen free female pigs (SPF; Ken-O-Kaw Frams, Windsor, Ill.) weighing 25-30 kg. The wounds were inoculated with methicillin-resistant Staphylococcus aureus (~10^6 CFU/mL). Within 10 minutes of inoculation 200 mg of test compound [2% w/w in polyethylene glycol (PEG)] was applied to each wound. Wounds were cultured on days 1, 2, and 3. Each site was cultured only once. The culture sample was treated with a neutralizer for the antimicrobial active ingredient. The samples were processed as is known in the art to determine the number of colony forming units per mL.

## Clc1ccc2c(c1)[C@H]1OCC[C@H]1[C@@H](c1c[nH]c3ccc(Br)cc13)N2 (relative stereo)
[1]; 40 mg/kg
  survival at 168 h: 100%
[1]; 120 mg/kg
  survival at 168 h: 100%

## Clc1ccc2c(c1)[C@H]1OCC[C@H]1[C@H](c1c[nH]c3ccc(Br)cc13)N2 (relative stereo)
[1]; 40 mg/kg
  survival at 168 h: 100%
[1]; 120 mg/kg
  survival at 168 h: 100%

## Brc1ccc2[nH]cc([C@H]3Nc4ccc(C#CCN5CCCCC5)cc4[C@H]4OCC[C@@H]34)c2c1 (relative stereo) [drawing 54]
[2]; rat, brain, iv, rat 1, 4 h post dose, read-out: Compound Content in Brain
  concentration at 4 h: 400 ng/g
[2]; rat, brain, iv, rat 2, 4 h post dose, read-out: Compound Content in Brain
  concentration at 4 h: 400 ng/g
[2]; rat, kidney, iv, rat 1, 4 h post dose, read-out: Compound Content in Kidney
  concentration at 4 h: 1300 ng/g
[2]; rat, kidney, iv, rat 2, 4 h post dose, read-out: Compound Content in Kidney
  concentration at 4 h: 2200 ng/g
[2]; rat, liver, iv, rat 1, 4 h post dose, read-out: Compound Content in Liver
  concentration at 4 h: 3200 ng/g
[2]; rat, liver, iv, rat 2, 4 h post dose, read-out: Compound Content in Liver
  concentration at 4 h: 3000 ng/g
[2]; rat, lung, iv, rat 1, 4 h post dose, read-out: Compound Content in Lung
  concentration at 4 h: 12100 ng/g
[2]; rat, lung, iv, rat 2, 4 h post dose, read-out: Compound Content in Lung
  concentration at 4 h: 10900 ng/g
[2]; rat, parietal peritoneum, iv, rat 1, 4 h post dose, read-out: Compound Content in Parietal Peritoneum
  concentration at 4 h: 1300 ng/g
[2]; rat, parietal peritoneum, iv, rat 2, 4 h post dose, read-out: Compound Content in Parietal Peritoneum
  concentration at 4 h: 1600 ng/g
[2]; rat, plasma, iv, rats, liposomal formulation (1.8 mg/mL), read-out: Maximum concentrations in plasma
  Cmax: ~450 ng/mL
[2]; rat, thigh muscle, iv, rat 2, 4 h post dose, read-out: Compound Content in Thigh Muscle
  concentration at 4 h: 700 ng/g
[2]; rats, liposomal formulation
  tolerability of the dose: well tolerated
[2]; rats, liposomal formulation, two-compartment open model
  decline of plasma concentrations: declined biexponentially

## Brc1ccc2[nH]cc([C@H]3Nc4ccc(C#CCN5CCCCC5)cc4[C@H]4OCC[C@@H]34)c2c1 (relative stereo) [drawing 55]
[3]; 24 h
  Log CFU/mL (mean ± SE): 5.92 Log CFU/mL
[3]; 48 h
  Log CFU/mL (mean ± SE): 5.83 Log CFU/mL
[3]; 72 h
  Log CFU/mL (mean ± SE): 5.66 Log CFU/mL
